The target in this experiment is T1, recombinant full-length human prolyl endopeptidase (PREP) (Homo sapiens, UniProt P48147).
T1 construct: To recombinant full-length human prolyl endopeptidase (PREP, R&D-Systems, 4308-SE); purchased R&D-Systems 4308-SE
T1 sequence (P48147 1-710): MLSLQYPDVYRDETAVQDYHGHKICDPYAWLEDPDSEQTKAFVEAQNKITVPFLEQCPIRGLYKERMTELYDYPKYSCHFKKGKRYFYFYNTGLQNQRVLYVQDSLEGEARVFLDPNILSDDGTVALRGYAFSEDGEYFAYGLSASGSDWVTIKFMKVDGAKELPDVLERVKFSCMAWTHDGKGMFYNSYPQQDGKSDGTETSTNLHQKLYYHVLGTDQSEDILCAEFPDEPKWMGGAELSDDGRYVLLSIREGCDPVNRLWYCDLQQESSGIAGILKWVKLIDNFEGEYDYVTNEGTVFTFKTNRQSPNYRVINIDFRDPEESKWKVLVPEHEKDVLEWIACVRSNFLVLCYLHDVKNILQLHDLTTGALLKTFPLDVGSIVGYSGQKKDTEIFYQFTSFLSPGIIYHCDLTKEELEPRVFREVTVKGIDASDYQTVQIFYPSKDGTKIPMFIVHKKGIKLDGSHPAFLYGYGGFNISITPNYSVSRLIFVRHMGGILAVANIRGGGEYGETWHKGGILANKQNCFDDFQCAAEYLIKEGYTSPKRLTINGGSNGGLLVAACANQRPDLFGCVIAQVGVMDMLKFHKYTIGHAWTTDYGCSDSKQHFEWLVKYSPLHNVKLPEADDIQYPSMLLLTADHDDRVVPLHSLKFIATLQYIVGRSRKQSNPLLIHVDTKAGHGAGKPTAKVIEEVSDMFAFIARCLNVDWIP
Description: Biochemical human prolyl endopeptidase (PREP) assay with fluorescently labelled substrate. Conditions: substrate Z-Gly-Pro-AMC 50 μM, 32° C., 60 min; some as mean values from multiple independent determinations. The procedure, abridged: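 0.4 nM (final, example) recombinant PREP in pH 7.5 Tris buffer with EDTA, GSH, BSA and Brij-35; compounds at 1 nM to 30 μM. Reaction started with 50 μM Z-Gly-Pro-AMC and followed by fluorescence (ex 360/em 465 nm) at 32° C for 60 min. IC50 interpolated from percent activity based on initial slopes.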
Regarding `O=C(C1CC(C(F)(F)F)Cc2nn(Cc3ccc(Cl)nc3)c(=O)n21)N1CCC(F)(F)C1` (racemic) [Example 230, (5RS,7RS)-2-[(6-Chloropyridin-3-yl)methyl]-5-[(3,3-difluoropyrrolidin-1-yl)carbonyl]-7-(trifluoromethyl)-5,6,7,8-tetrahydro[1,2,4]triazolo[4,3-a]pyridin-3(2H)-one], the IC50 (commonly the concentration at which inhibition is half-maximal) turned out to be 2.3 nM.

`O=C([C@@H]1CCCc2nn(Cc3cccc(C(F)(F)F)n3)c(=O)n21)N1CC(F)C1` [Example 369, (5S)-5-[(3-Fluoroazetidin-1-yl)carbonyl]-2-{[6-(trifluoromethyl)pyridin-2-yl]methyl}-5,6,7,8-tetrahydro[1,2,4]triazolo[4,3-a]pyridin-3(2H)-one]: the IC50 was found to be 13 nM.

`O=C([C@@H]1CCCc2nn(Cc3ccc(F)cc3)c(=O)n21)N1CC(F)C1` [Example 546, (5S)-5-[(3-Fluoroazetidin-1-yl)carbonyl]-2-(4-fluorobenzyl)-5,6,7,8-tetrahydro[1,2,4]triazolo[4,3-a]pyridin-3(2H)-one]: the IC50 was determined as 0.57 nM.

Regarding `O=C([C@@H]1CCCc2nn(Cc3cc(C(F)(F)F)c(Cl)cn3)c(=O)n21)N1CC(O)C1` [Example 373, (5S)-2-{[5-Chloro-4-(trifluoromethyl)pyridin-2-yl]methyl}-5-[(3-hydroxyazetidin-1-yl)carbonyl]-5,6,7,8-tetrahydro[1,2,4]triazolo[4,3-a]pyridin-3(2H)-one], the IC50 is 135 nM.

As for `O=C([C@@H]1CCCc2nn(Cc3nccc(C(F)(F)F)c3Cl)c(=O)n21)N1C[C@@H](F)[C@@H](F)C1` [Example 388, (5S)-2-{[3-Chloro-4-(trifluoromethyl)pyridin-2-yl]methyl}-5-{[(3R,4S)-3,4-difluoropyrrolidin-1-yl]carbonyl}-5,6,7,8-tetrahydro[1,2,4]triazolo[4,3-a]pyridin-3(2H)-one], the IC50 came to 0.575 nM.

Regarding `Cc1ccc(Cn2nc3n(c2=O)C(C(=O)N2CCCC2)CC(C(F)(F)F)C3)cc1` (single isomer, unassigned) [Example 226, (5RS,7RS)-2-(4-Methylbenzyl)-5-(pyrrolidin-1-ylcarbonyl)-7-(trifluoromethyl)-5,6,7,8-tetrahydro[1,2,4]triazolo[4,3-a]pyridin-3(2H)-one], the IC50 was 3.6 nM.

Take `COc1ccc(CCn2nc3n(c2=O)[C@H](C(=O)N2CCC(F)(F)C2)CCC3)cc1` [Example 346, (5S)-5-[(3,3-Difluoropyrrolidin-1-yl)carbonyl]-2-[2-(4-methoxyphenyl)ethyl]-5,6,7,8-tetrahydro[1,2,4]triazolo[4,3-a]pyridin-3(2H)-one]: the IC50 turned out to be 4.2 nM.

Consider `CC1CCC(C(=O)N2C[C@@H](F)[C@@H](F)C2)n2c1nn(Cc1ccnc(C(F)(F)F)c1F)c2=O` (mixture of isomers) [Example 322, (5RS,8RS)-5-{[(3R,4S)-3,4-Difluoropyrrolidin-1-yl]carbonyl}-2-{[3-fluoro-2-(trifluoromethyl)pyridin-4-yl]methyl}-8-methyl-5,6,7,8-tetrahydro[1,2,4]triazolo[4,3-a]pyridin-3(2H)-one], for which the IC50 came to 0.94 nM.

With `O=C([C@@H]1CCCc2nn(Cc3ccnc(C(F)(F)F)c3F)c(=O)n21)N1CCSC1` [Example 485, (5S)-2-{[3-Fluoro-2-(trifluoromethyl)pyridin-4-yl]methyl}-5-(1,3-thiazolidin-3-ylcarbonyl)-5,6,7,8-tetrahydro[1,2,4]triazolo[4,3-a]pyridin-3(2H)-one], the IC50 came out at 4.3 nM.

In the case of `O=C([C@@H]1CCCc2nn(Cc3cncc(Cl)c3)c(=O)n21)N1C[C@@H](F)[C@@H](F)C1` [Example 439, (5S)-2-[(5-Chloropyridin-3-yl)methyl]-5-{[(3R,4S)-3,4-difluoropyrrolidin-1-yl]carbonyl}-5,6,7,8-tetrahydro[1,2,4]triazolo[4,3-a]pyridin-3(2H)-one], the IC50 stood at 2.2 nM.

`O=C(C1CC(C(F)(F)F)Cc2nn(Cc3ccc(Cl)nc3)c(=O)n21)N1CCC(F)(F)C1` (single isomer, unassigned) [Example 232, (5RS,7RS)-2-[(6-Chloropyridin-3-yl)methyl]-5-[(3,3-difluoropyrrolidin-1-yl)carbonyl]-7-(trifluoromethyl)-5,6,7,8-tetrahydro[1,2,4]triazolo[4,3-a]pyridin-3(2H)-one]: the IC50 was determined as 400 nM.

Regarding `O=C(C1CC(C(F)(F)F)Cc2nn(Cc3cncc(Cl)c3)c(=O)n21)N1C[C@@H](F)[C@@H](F)C1` (single isomer, unassigned) [Example 269], the IC50 was found to be 4.2 nM.

For the molecule `COc1ccc(Cn2nc3n(c2=O)C(C(=O)N2CCCC2)CCC3)cc1Cl` (racemic) [Example 46, (5RS)-2-(3-Chloro-4-methoxybenzyl)-5-(pyrrolidin-1-ylcarbonyl)-5,6,7,8-tetrahydro[1,2,4]triazolo[4,3-a]pyridin-3(2H)-one], the IC50 was 0.95 nM.

As to `O=C([C@@H]1CCCc2nn(CC3(c4ccc(F)cc4)CC3)c(=O)n21)N1CC(F)C1` [Example 351, (5S)-5-[(3-Fluoroazetidin-1-yl)carbonyl]-2-{[1-(4-fluorophenyl)cyclopropyl]methyl}-5,6,7,8-tetrahydro[1,2,4]triazolo[4,3-a]pyridin-3(2H)-one], the IC50 was 1.6 nM.

In the case of `O=C(C1C(C(F)(F)F)CCc2nn(Cc3ncc(Cl)cc3Cl)c(=O)n21)N1CCC(F)(F)C1` (single isomer, unassigned) [Example 290, (5RS,6RS)-2-[(3,5-Dichloropyridin-2-yl)methyl]-5-[(3,3-difluoropyrrolidin-1-yl)carbonyl]-6-(trifluoromethyl)-5,6,7,8-tetrahydro[1,2,4]triazolo[4,3-a]pyridin-3(2H)-one], the IC50 amounted to 82 nM.

Consider `O=C(C1CCc2nn(Cc3ccc(F)c(Cl)c3)c(=O)n21)N1CC(F)C1` (racemic) [Example 171, (5RS)-2-(3-Chloro-4-fluorobenzyl)-5-[(3-fluoroazetidin-1-yl)carbonyl]-2,5,6,7-tetrahydro-3H-pyrrolo[2,1-c][1,2,4]triazol-3-one], for which the IC50 is 6.3 nM.

`O=C([C@@H]1CCCc2nn(Cc3ccc(F)c(Cl)c3)c(=O)n21)N1CC(F)C1` [Example 457, (5S)-2-(3-Chloro-4-fluorobenzyl)-5-[(3-fluoroazetidin-1-yl)carbonyl]-5,6,7,8-tetrahydro[1,2,4]triazolo[4,3-a]pyridin-3(2H)-one]: the IC50 was determined as 1.32 nM.

On to `O=C(C1CCCc2nn(Cc3ccc(Cl)nc3)c(=O)n21)N1CCCC1` (single isomer, unassigned) [Example 32, (5RS)-2-[(6-Chloropyridin-3-yl)methyl]-5-(pyrrolidin-1-ylcarbonyl)-5,6,7,8-tetrahydro[1,2,4]triazolo[4,3-a]pyridin-3(2H)-one], for which the IC50 was found to be 1.48 nM.

As to `O=C(C1CCCc2nn(Cc3ncc(C(F)(F)F)cc3Cl)c(=O)n21)N1CC(O)C1` (racemic) [Example 403, (5RS)-2-{[3-Chloro-5-(trifluoromethyl)pyridin-2-yl]methyl}-5-[(3-hydroxyazetidin-1-yl)carbonyl]-5,6,7,8-tetrahydro[1,2,4]triazolo[4,3-a]pyridin-3(2H)-one], the IC50 was determined as 189 nM.

Turning to `O=C(C1CC(C(F)(F)F)Cc2nn(Cc3ccnc(C(F)(F)F)c3F)c(=O)n21)N1CC(F)C1` (single isomer, unassigned) [Example 254, (5RS,7RS)-5-[(3-Fluoroazetidin-1-yl)carbonyl]-2-{[3-fluoro-2-(trifluoromethyl)pyridin-4-yl]methyl}-7-(trifluoromethyl)-5,6,7,8-tetrahydro[1,2,4]triazolo[4,3-a]pyridin-3(2H)-one], the IC50 was found to be 30.5 nM.

`O=C([C@@H]1CCCc2nn(Cc3ccnc(C(F)(F)F)c3F)c(=O)n21)N1CC(O)C1` [Example 481, (5S)-2-{[3-Fluoro-2-(trifluoromethyl)pyridin-4-yl]methyl}-5-[(3-hydroxyazetidin-1-yl)carbonyl]-5,6,7,8-tetrahydro[1,2,4]triazolo[4,3-a]pyridin-3(2H)-one]: the IC50 came out at 27.5 nM.

Regarding `O=C([C@@H]1CCCc2nn(Cc3ccnc(C(F)(F)F)c3F)c(=O)n21)N1CCC(F)(F)C1` [Example 482, (5S)-5-[(3,3-Difluoropyrrolidin-1-yl)carbonyl]-2-{[3-fluoro-2-(trifluoromethyl)pyridin-4-yl]methyl}-5,6,7,8-tetrahydro[1,2,4]triazolo[4,3-a]pyridin-3(2H)-one], the half-inhibitory concentration (IC50) worked out at 2.8 nM.

On to `O=C(C1CCCc2nn(Cc3cc(Cl)cc(Cl)c3)c(=O)n21)N1CCC(F)(F)C1` (racemic) [Example 82, (5RS)-2-(3,5-Dichlorobenzyl)-5-[(3,3-difluoropyrrolidin-1-yl)carbonyl]-5,6,7,8-tetrahydro[1,2,4]triazolo[4,3-a]pyridin-3(2H)-one], for which the IC50 amounted to 1.75 nM.

These data come from US10722501B2 (BAYER AKTIENGESELLSCHAFT, priority 2016, dated 2020).
